Experimental data: publication PMC9747239, “State-selective modulation of heterotrimeric Gαs signaling with macrocyclic peptides” (Cell, 2022)
Where a SMILES comes first, the peptide text is derived from it. Bridges are numbered along the chain shown (N, C = ends). [ ]: non-standard residue; d: D form.

Experiments:
[1] = target: T1, Gαs (short isoform) (Homo sapiens, UniProt P63092); assay: Reconstituted adenylyl cyclase (AC) activity assay, Gαs/GNP-mediated AC activation; format: biochemical; conditions: Gαs/GNP 125 nM, read-out: IC50, inhibition of Gαs-mediated AC activation
T1 construct: vector His tag with thrombin/Drice site (removed); made in house; host or cells: E. coli BL21(DE3)
Method: Cyclic peptides (4 mM stock in DMSO) were diluted to 4X stocks with a series of concentrations in reaction buffer (1x PBS 7.4, 0.1% BSA). Gαs at a concentration of 8.5 mg/mL (about 190 μM) in 20 mM HEPES 8.0, 150 mM NaCl, 5 mM MgCl2, 1 mM EDTA-Na 8.0 was diluted to 0.5 μM in dilution buffer (1x PBS 7.4, 0.1% BSA, 1 mM EDTA-Na 8.0, 2 mM DTT, 0.1mM MgCl2) plus 1mM GNP (For the GDP-bound R201 mutants, GDP was used in the nucleotide exchange experiments). After incubation at room temperature for 1 h to allow nucleotide exchange, 2.5 μL of 4x Gαs dilution was mixed with 1 μL MgCl2 stock (20 mM MgCl2, 1x PBS 7.4, 0.1% BSA) in an OptiPlate-384, White Opaque 384-well Microplate to lock Gαs in GNP-bound state. 2 μL of 5x AC stock (2 μM VC1, 2 nM IIC2, 150 μM FSK, 1x PBS 7.4, 0.1% BSA) was added, followed by addition of 2.5 μL 4X cyclic peptides stock. […] The cAMP concentrations were measured by the LANCE Ultra cAMP kit. […]
cAMP concentrations measurement by the LANCE Ultra cAMP kit: A cAMP standard curve was generated in the same plate using the 50 μM cAMP standard in the kit. […] 10 μL of each diluted sample was mixed with 5 μL of 4X Eu-cAMP tracer and 5 μL of 4X ULight-anti-cAMP in a white, opaque Optiplate-384 microplate, incubated for 1 h at room temperature, and the time-resolved fluorescence resonance energy transfer (TR-FRET) signals were read on a Spark 20M plate reader. […]

[2] = Plasma stability assay; format: in vitro ADME; conditions: both sexes, pooled human plasma, 37 °C, values represent 95% confidence intervals, read-out: Half-life (hour), plasma stability
Method: (§1) These assays were conducted by Pharmaron Beijing CO., Ltd. Cyclic peptides working solutions were prepared at 10 μM in DMEM with 10% FBS (Avantor, Cat# 76,294–180) or human plasma (Pooled, Male & Female, BioIVT, Cat# HMN666664). The assays were performed in duplicate. Vials were incubated at 37 °C at 60 rpm in a water bath and taken at designated time points including 0, 480, 1080 and 1440 min. For each time point, the initiation of the reaction was staggered so all the time points were terminated with cold acetonitrile containing internal standards (IS, 100 nM alprazolam, 200 nM labetalol, 200 nM Imipramine and 2 μM ketoplofen) at the same time. Samples were vortexed then centrifuged at 4°C to remove proteins. The supernatants from centrifugation were diluted by ultra-pure H2O and used for LC-MS/MS analysis. All calculations were carried out using GraphPad Prism. Remaining percentages of parent compounds at each time point were estimated by determining the peak area ratios from extractedion chromatograms.

[3] = target: T2, Gαs/GNP (Homo sapiens, UniProt P63092); assay: Bio-layer interferometry (BLI), GNP-bound Gαs; conditions: immobilized Gαs/GNP, read-out: KD, binding to Gαs/GNP
T2 construct: hexahistidine (N, cleaved yes); made in house; host or cells: E. coli BL21(DE3)
Method: (§2) BLI experiments were performed using an OctetRED384 instrument from ForteBio. All experiments were performed at 25°C using BLI buffer (10 mM HEPES pH 7.4, 150 mM NaCl, 1mM MgCl2, 0.05% Tween 20, 0.1% DMSO, 0.2 mM GNP or GDP). Cyclic peptides or Gα proteins were diluted to a series of concentrations (Final concentrations were indicated in Figures) in BLI buffer plus 10 μM Biotin. Assays were conducted in Greiner 384well, black, flat bottom polypropylene plates containing the protein solutions, BLI buffer plus 10 μM Biotin for dissociation, and serial dilutions of cyclic peptides to be tested.
(§3) Biotinylated proteins or cyclic peptides were immobilized on Streptavidin biosensors by dipping sensors into plate wells containing protein solutions at a concentration of 50–150 nM. Protein loading is around 2–3 nm. Cyclic peptide loading is around 0.2–0.3 nm. Sensors loaded with proteins or cyclic peptides were moved and dipped into wells with BLI buffer plus 10 μM Biotin to block unlabeled Streptavidin. […]
(§4) Raw kinetic data collected were processed with the Data Analysis software provided by the manufacturer using single reference subtraction in which buffer-only reference was subtracted (For GN13 analysis). […] The resulting data were analyzed based on a 1:1 binding model from which kon and koff values were obtained and then Kd values were calculated.

[4] = Chemical stability assay in DMEM with 10% FBS; format: in vitro ADME; conditions: bovine, DMEM with 10% FBS (fetal bovine serum), 37 °C, values represent 95% confidence intervals, read-out: Half-life (hour), chemical stability in DMEM with 10% FBS
Method: as §1

[5] = target: T3, Gαs/GDP and Gβγ(C68S) (Homo sapiens, UniProt P63092); assay: FRET based Gαs/Gβγ interaction assay; format: binding
T3 construct: hexahistidine (N, cleaved yes); made in house; host or cells: E. coli BL21(DE3) (Gαs); Sf9 insect cells (Gβ1γ2)

[6] = target: T4, Gαs/GDP (Homo sapiens, UniProt P63092); assay: Bio-layer interferometry (BLI), GDP-bound Gαs; conditions: read-out: KD, binding to Gαs/GDP
T4 construct: hexahistidine (N, cleaved yes); made in house; host or cells: E. coli BL21(DE3)
Method: as §2, §3, §4

[7] = target: T5, Adenylyl cyclase (C1 domain of ADCY5, VC1, with C2 domain of ADCY2, IIC2) (human, UniProt O95622 442-658; Q08462 871-1082); assay: AlphaScreen or HTRF; TR-FRET competition: biotinylated GNP-bound Gαs (100 nM) with streptavidin XL665, AC (VC1 20 nM, IIC2 40 nM, forskolin 100 uM) with anti-6His-Tb cryptate, GN13 0-40,000 nM, 1 h at room temperature, 1X PBS 7.4, 0.1% BSA, 2 mM DTT, 2 mM MgCl2; conditions: both partners purified
T5 construct: C1 domain (VC1) of adenylyl cyclase V; C2 domain (IIC2) of human adenylyl cyclase II, residues 871-1082; Forskolin (100 uM) was present in the assay; also called AC; VC1/IIC2; source: E. coli BL21(DE3), purified (TALON, gel filtration); VC1 and IIC2 mixed with forskolin as one AC stock

[8] = target: T6, Adenylyl cyclase (AC): C1 domain of ADCY5 (VC1) with C2 domain of ADCY2 (IIC2), with forskolin (human, UniProt O95622 442-658; Q08462 871-1082); assay: AlphaScreen or HTRF; TR-FRET Gαs/adenylyl cyclase interaction assay: 100 nM GNP-bound biotinylated Gαs with streptavidin XL665, 20 nM VC1, 40 nM IIC2, 100 μM forskolin with anti-6His-Tb cryptate, cyclic peptide series; 1X PBS 7.4, 0.1% BSA, 2 mM DTT, 2 mM MgCl2, 1 h at room temperature; conditions: both partners purified
T6 construct: C1 domain of human ADCY5 (adenylyl cyclase V), residues 442-658; C2 domain of human ADCY2 (adenylyl cyclase II), residues 871-1082; In the TR-FRET assay AC was detected with anti-6His-Tb cryptate; source: E. coli BL21(DE3), each domain purified (TALON, gel filtration), mixed as an AC stock with forskolin

## CC[C@H](C)[C@@H]1NC(=O)[C@H](C)NC(=O)[C@H](Cc2ccc(O)cc2)NC(=O)[C@H](C(C)C)NC(=O)[C@H](CO)NC(=O)[C@H](CCC(=O)O)NC(=O)[C@H](Cc2ccccc2)NC(=O)[C@@H](Cc2ccc(O)cc2)NC(=O)CSC[C@@H](C(=O)NCC(N)=O)NC(=O)[C@H](CC(C)C)NC(=O)[C@H]([C@@H](C)O)NC(=O)CNC(=O)[C@H](Cc2c[nH]c3ccccc23)NC1=O [GN13] ({CH2CO}-[dY]FESVYAIWGTLCG-NH2; thioether N-13)
[1]
  IC50: 4150 ± 1130 nM
[2]
  half-life at 10 μM: > 82 h
[3]
  Kd: 190 ± 20 nM
[4]
  half-life at 10 μM: > 76 h

## CC[C@H](C)[C@@H]1NC(=O)[C@H](CC(C)C)NC(=O)[C@@H](Cc2ccc(O)cc2)NC(=O)CSC[C@@H](C(=O)NCC(N)=O)NC(=O)[C@@H]2CCCN2C(=O)[C@H](CC(C)C)NC(=O)[C@H](CC(N)=O)NC(=O)[C@H](CC(C)C)NC(=O)[C@H](C)NC(=O)[C@H](Cc2c[nH]c3ccccc23)NC(=O)[C@H](CCC(N)=O)NC(=O)[C@H](CCCNC(=N)N)NC(=O)[C@H](Cc2ccccc2)NC(=O)[C@H]([C@@H](C)O)NC1=O [cpGD20] ({CH2CO}-[dY]LITFRQWALNLPCG-NH2; thioether N-14)
[5]
  IC50: 14 ± 0.6 nM
[6]
  Kd: 14.5 ± 0.4 nM
[2]
  half-life at 10 μM: 7.16 to 12.7 h
[4]
  half-life at 10 μM: 37.4 to 50.3 h

B1: Biotinylated Avi-Gαs (WT), residues 7-380 of the short isoform of human Gαs (natural protein)
chain: SKTEDQRNEEKAQREANKKIEKQLQKDKQVYRATHRLLLLGAGESGKSTIVKQMRILHVNGFNGDSEKATKVQDIKNNLKEAIETIVAAMSNLVPPVELANPENQFRVDYILSVMNVPDFDFPPEFYEHAKALWEDEGVRACYERSNEYQLIDCAQYFLDKIDVIKQADYVPSDQDLLRCRVLTSGIFETKFQVDKVNFHMFDVGGQRDERRKWIQCFNDVTAIIFVVASSSYNMVIREDNQTNRLQEALNLFKSIWNNRWLRTISVILFLNKQDLLAEKVLAGKSKIEDYFPEFARYTTPEDATPEPGEDPRVTRAKYFIRDEFLRISTASGDGRHYCYPHFTCAVDTENIRRVFNDCRDIIQRMHLRQYELL
modifications: biotin on the Avi tag
notes: Gαs (GNAS), human, short isoform (380 residues), residues 7-380; Loaded with GppNHp (GNP) or GDP as the assay says; also called Biotinylated Gαs/GNP; Biotinylated Gαs/GDP; source: E. coli BL21(DE3), purified (TALON, Source-15Q, gel filtration), biotinylated with BirA; not shown: Avi tag, N-terminal, kept; His6, N-terminal, cleaved
[7]
  binding result: binds

B2: Biotinylated Avi-Gαs (WT), residues 7-380 of the short isoform of human Gαs (natural protein)
chain: B1 chain
modifications: biotin on the Avi tag (BirA)
notes: human Gαs (GNAS), short isoform, residues 7-380; Loaded with GNP (GppNHp) or GDP; the nucleotide state is told by the assay; also called Gαs/GNP; Gαs/GDP; source: E. coli BL21(DE3), purified (TALON, Drice cleavage, BirA biotinylation, Source-15Q, gel filtration); not shown: Avi tag, N-terminal, kept; His6, N-terminal, cleaved
[8]
  binding result: binds
